Laboratory results reported in patent US9907838B2, “Composition and methods for treating ischemic damage” (GEMVAX & KAEL CO., LTD., priority 2013, dated 2018).

Legend:
[1] = test system: rat model of ischemic-reperfusion injury (abdominal skin flaps); test: Flap survivability in rat skin flap model of ischemic-reperfusion injury; format: in vivo, Sprague-Dawley rats; conditions: 7 days after induction of ischemic reperfusion; 10 mg/500 μL intramuscularly 30 minutes before and 1, 2, 3, 4, 5 and 7 days after; PBS-treated group 34.69%±16.44%; p<0.05
Experimental: A rat model of ischemic-reperfusion injury was established by acquiring 5 cm×5 cm skin flaps from the abdomen of Sprague-Dawley rats (weighing 180-230 g), administering PEP1 or saline, inducing local ischemia through clamping and then restoring blood flow 7 hours later by removing the clamps (see FIG. 11).
Test groups were divided into an administered group (PEP 1), a control group (PBS without PEP 1), and a sham group (no ischemic-reperfusion injury induced). PEP 1 (10 mg/500 μL) or PBS (500 μL) was intramuscularly injected 30 minutes before and 1, 2, 3, 4, 5 and 7 days after the induction of ischemic reperfusion.
Flap survivability was measured 7 days after the induction of ischemic reperfusion. The flap survival rate was measured through analysis of digital images using the imageJ program.

[2] = test system: renal ischemic-reperfusion injury mouse model; test: Renal failure markers (BUN and creatine) in renal ischemic-reperfusion injury mouse model; format: in vivo, C57BL/6 mouse; conditions: blood 24 hours after ischemic reperfusion; 1000 nmol/kg 30 minutes before and 12 hours after IR; compared to PBS control group
Experimental: (§1) A renal ischemic-reperfusion injury mouse model was established by inducing ischemic reperfusion by bilaterally clamping renal pedicles for 30 minutes and restoring blood flow 30 minutes later by removing the clamps. Test groups were divided into an administered group (PEP 1), a control group (PBS without PEP 1), and a sham group (no bilateral clamping). PEP 1 was […] injected at a concentration of 1000 nmol/kg 30 minutes before and 12 hours after the induction of ischemic reperfusion.
(§2) C57BL/6 mouse (8 weeks old; Charles River Laboratories, Wilmington, Mass.) was used to induce renal ischemic-reperfusion injury. After blocking blood flow by clamping the renal pedicles with vascular forceps and inducing ischemia for […], reperfusion was performed.
The peptide PEP 1 was diluted in PBS to a concentration of 1000 nmol/kg and intraperitoneally (i.p.) injected twice 30 minutes before and 12 hours after the ischemic reperfusion. […]
Blood was taken 24 hours after the ischemic reperfusion and the levels of blood urea nitrogen (BUN) and creatine as renal toxicity markers were measured. […] Then, proteins were extracted and the levels of cytokines were measured. The concentrations of creatine and BUN were measured using an autoanalyzer (Technicon RA-1000; Bayer, Tarrytown, N.Y.).

[3] = test system: renal ischemic-reperfusion injury mouse model; test: Infiltration of innate immune cells (F4/80, Gr-1 staining) in renal tissue, renal ischemic-reperfusion injury mouse model; format: in vivo, C57BL/6 mouse; conditions: 24 hours after ischemic reperfusion; 1000 nmol/kg 30 minutes before and 12 hours after IR; compared to PBS control group
Experimental: as §1, §2
(§3) The peptide PEP 1 was diluted in PBS to a concentration of 1000 nmol/kg and intraperitoneally (i.p.) injected twice 30 minutes before and 12 hours after the ischemic reperfusion. The test was conducted for the administered group (PEP 1), the control group (PBS), and the sham group (no ischemic reperfusion).
Infiltration of innate immune cells was evaluated by immnohistologically staining renal tissue with F4/80 (macrophage maker) and Gr-1 (neutrophil maker) 24 hours after the ischemic reperfusion. […]

[4] = test system: renal ischemic-reperfusion injury mouse model; test: Renal tissue injury scoring after PAS staining in renal ischemic-reperfusion injury mouse model; format: in vivo, C57BL/6 mouse; conditions: 24 hours after ischemic reperfusion; 1000 nmol/kg 30 minutes before and 12 hours after IR; compared to PBS control group
Experimental: as §1, §2, §3
Renal tissue was stained with periodic acid-Schiff (PAS) stain according to the protocol of the manufacturer (Polysciences, Inc., Warrington, Pa., USA) 24 hours after the ischemic reperfusion. After the staining, renal tissue injury was evaluated through renal tissue injury scoring.

[5] = test system: renal ischemic-reperfusion injury mouse model; test: Renal apoptosis by TUNEL staining in renal ischemic-reperfusion injury mouse model; format: in vivo, C57BL/6 mouse; conditions: 24 hours after ischemic reperfusion; 1000 nmol/kg 30 minutes before and 12 hours after IR; compared to PBS control group
Experimental: as §1, §2, §3
Renal apoptosis was evaluated by staining renal tissue with TUNEL stain 24 hours after the ischemic reperfusion. Renal paraffin sections were stained with TUNEL using a TUNEL staining kit (Roche Applied Science, Indianapolis, Ind., USA).

[6] = test system: renal ischemic-reperfusion injury mouse model; test: Inflammatory cytokine levels (IL-6, MCP-1, TNF-α) in renal tissue, renal ischemic-reperfusion injury mouse model; format: in vivo, C57BL/6 mouse; conditions: protein extracted from renal tissue 24 hours after ischemic reperfusion; 1000 nmol/kg twice; compared to PBS control group
Experimental: as §1, §2, §3
Blood was taken 24 hours after the ischemic reperfusion and the levels of blood urea nitrogen (BUN) and creatine as renal toxicity markers were measured. Renal tissue was taken and prepared into paraffin blocks for immunohistochemical and histological studies. Then, proteins were extracted and the levels of cytokines were measured. The concentrations of creatine and BUN were measured using an autoanalyzer (Technicon RA-1000; Bayer, Tarrytown, N.Y.).
Protein was extracted from renal tissue 24 hours after the ischemic reperfusion and the levels of IL-6, MCP-1 and TNF-α were measured according to the cytometric bead array method. Mouse IL-6, MCP-1, TNF-α ELISA kits were purchased from R&D Systems and the test was conducted according to the manufacturer's protocol.

Sequence: EARPALLTSRLRFIPK (listed as Homo sapiens) [PEP 1]
- flap survival rate [1]: 58.88%±11.44%
- blood urea nitrogen (BUN) level [2]: significantly decreased
- creatine level [2]: significantly decreased
- infiltration of macrophages (F4/80) into renal tissue [3]: remarkably decreased
- infiltration of neutrophils (Gr-1) into renal tissue [3]: remarkably decreased
- renal tissue injury (renal tissue injury scoring, PAS stain) [4]: remarkably decreased
- TUNEL-positive cells in renal tissue [5]: remarkably decreased
- IL-6 level in renal tissue [6]: significantly decreased
- MCP-1 level in renal tissue [6]: significantly decreased
- TNF-α level in renal tissue [6]: no significant difference
